Results reported in PubChem BioAssay (NCI).
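Test compounds were applied to cells in 96-well plates for 48 hours at 5 doses. Abbreviation: GI50, concentration required for 50% inhibition of growth. TGI: total growth inhibition.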

Legend:
Assay in all cases: NCI tumour cell line growth inhibition, 48 h
786-0 renal = tested on: 786-0 renal
A498 renal = tested on: A498 renal
A549 NSCLC = tested on: A549 NSCLC
ACHN renal = tested on: ACHN renal
BT-549 breast = tested on: BT-549 breast
CAKI-1 renal = tested on: CAKI-1 renal
CCRF-CEM leukemia = tested on: CCRF-CEM leukemia
COLO 205 colon = tested on: COLO 205 colon
DU-145 prostate = tested on: DU-145 prostate
EKVX NSCLC = tested on: EKVX NSCLC
HCC-2998 colon = tested on: HCC-2998 colon
HCT-116 colon = tested on: HCT-116 colon
HCT-15 colon = tested on: HCT-15 colon
HL-60(TB) leukemia = tested on: HL-60(TB) leukemia
HOP-62 NSCLC = tested on: HOP-62 NSCLC
HOP-92 NSCLC = tested on: HOP-92 NSCLC
HS 578T breast = tested on: HS 578T breast
HT29 colon = tested on: HT29 colon
IGROV1 ovarian = tested on: IGROV1 ovarian
K-562 leukemia = tested on: K-562 leukemia
KM12 colon = tested on: KM12 colon
LOX IMVI melanoma = tested on: LOX IMVI melanoma
M14 melanoma = tested on: M14 melanoma
MALME-3M melanoma = tested on: MALME-3M melanoma
MCF7 breast = tested on: MCF7 breast
MDA-MB-231 breast = tested on: MDA-MB-231 breast
MDA-MB-435 = tested on: MDA-MB-435
MOLT-4 leukemia = tested on: MOLT-4 leukemia
NCI-H226 lung = tested on: NCI-H226 lung
NCI-H23 lung = tested on: NCI-H23 lung
NCI-H460 lung = tested on: NCI-H460 lung
NCI-H522 lung = tested on: NCI-H522 lung
NCI/ADR-RES ovarian = tested on: NCI/ADR-RES ovarian
OVCAR-3 ovarian = tested on: OVCAR-3 ovarian
OVCAR-4 ovarian = tested on: OVCAR-4 ovarian
OVCAR-5 ovarian = tested on: OVCAR-5 ovarian
OVCAR-8 ovarian = tested on: OVCAR-8 ovarian
PC-3 prostate = tested on: PC-3 prostate
RPMI-8226 leukemia = tested on: RPMI-8226 leukemia
RXF 393 renal = tested on: RXF 393 renal
SF-268 CNS = tested on: SF-268 CNS
SF-295 CNS = tested on: SF-295 CNS
SF-539 CNS = tested on: SF-539 CNS
SK-MEL-2 melanoma = tested on: SK-MEL-2 melanoma
SK-MEL-28 melanoma = tested on: SK-MEL-28 melanoma
SK-MEL-5 melanoma = tested on: SK-MEL-5 melanoma
SK-OV-3 ovarian = tested on: SK-OV-3 ovarian
SN12C renal = tested on: SN12C renal
SNB-19 CNS = tested on: SNB-19 CNS
SNB-75 CNS = tested on: SNB-75 CNS
SR leukemia = tested on: SR leukemia
SW-620 colon = tested on: SW-620 colon
T-47D breast = tested on: T-47D breast
TK-10 renal = tested on: TK-10 renal
U251 CNS = tested on: U251 CNS
UACC-257 melanoma = tested on: UACC-257 melanoma
UACC-62 melanoma = tested on: UACC-62 melanoma
UO-31 renal = tested on: UO-31 renal

## Fc1cnc(NC2CC2)nc1-c1cnc2ccc(N3CCOCC3)cn12
786-0 renal
  GI50: 0.322 µM
  TGI: 22.8 µM
A498 renal
  GI50: 0.168 µM
  TGI: 0.43 µM
A549 NSCLC
  GI50: 292 nM
  TGI: > 64.3 µM
ACHN renal
  GI50: 160 nM
  TGI: 10.6 µM
BT-549 breast
  GI50: 230 nM
  TGI: 3.35 µM
CAKI-1 renal
  GI50: 122 nM
  TGI: 12.5 µM
CCRF-CEM leukemia
  GI50: 325 nM
  TGI: > 100 µM
COLO 205 colon
  GI50: 144 nM
  TGI: 0.428 µM
DU-145 prostate
  GI50: 323 nM
  TGI: > 60.9 µM
EKVX NSCLC
  GI50: 0.297 µM
  TGI: 3.46 µM
HCC-2998 colon
  GI50: 305 nM
  TGI: 2.62 µM
HCT-116 colon
  GI50: 160 nM
  TGI: > 56.3 µM
HCT-15 colon
  GI50: 266 nM
  TGI: 14.5 µM
HL-60(TB) leukemia
  GI50: 0.304 µM
  TGI: 1010 nM
HOP-62 NSCLC
  GI50: 0.306 µM
  TGI: > 44.8 µM
HOP-92 NSCLC
  GI50: 116 nM
  TGI: 0.461 µM
HS 578T breast
  GI50: 0.265 µM
  TGI: 2.46 µM
HT29 colon
  GI50: 251 nM
  TGI: > 58.3 µM
IGROV1 ovarian
  GI50: 0.268 µM
  TGI: 17.5 µM
K-562 leukemia
  GI50: 0.441 µM
  TGI: > 100 µM
KM12 colon
  GI50: 237 nM
  TGI: 3.97 µM
LOX IMVI melanoma
  GI50: 90 nM
  TGI: 12.5 µM
M14 melanoma
  GI50: 0.279 µM
  TGI: 1.01 µM
MALME-3M melanoma
  GI50: 340 nM
  TGI: 1.06 µM
MCF7 breast
  GI50: 272 nM
  TGI: 6.91 µM
MDA-MB-231 breast
  GI50: 0.203 µM
  TGI: 1.68 µM
MDA-MB-435
  GI50: 272 nM
  TGI: 0.992 µM
MOLT-4 leukemia
  GI50: 346 nM
NCI-H226 lung
  GI50: 0.201 µM
  TGI: 1.39 µM
NCI-H23 lung
  GI50: 0.242 µM
  TGI: 0.957 µM
NCI-H460 lung
  GI50: 0.291 µM
  TGI: 10.2 µM
NCI-H522 lung
  GI50: 0.374 µM
  TGI: 6.11 µM
NCI/ADR-RES ovarian
  GI50: 276 nM
  TGI: 4.7 µM
OVCAR-3 ovarian
  GI50: 258 nM
  TGI: > 32.6 µM
OVCAR-4 ovarian
  GI50: 0.306 µM
  TGI: 3.06 µM
OVCAR-5 ovarian
  GI50: 0.188 µM
  TGI: 3.13 µM
OVCAR-8 ovarian
  GI50: 284 nM
  TGI: > 73.9 µM
PC-3 prostate
  GI50: 276 nM
  TGI: 8.6 µM
RPMI-8226 leukemia
  GI50: 292 nM
  TGI: 1.71 µM
RXF 393 renal
  GI50: 93.2 nM
  TGI: 303 nM
SF-268 CNS
  GI50: 296 nM
  TGI: 6.85 µM
SF-295 CNS
  GI50: 0.299 µM
  TGI: 12.1 µM
SF-539 CNS
  GI50: 164 nM
  TGI: 538 nM
SK-MEL-2 melanoma
  GI50: 0.218 µM
  TGI: 0.641 µM
SK-MEL-28 melanoma
  GI50: 252 nM
  TGI: 1.27 µM
SK-MEL-5 melanoma
  GI50: 231 nM
  TGI: 0.706 µM
SK-OV-3 ovarian
  GI50: 0.781 µM
  TGI: 81.9 µM
SN12C renal
  GI50: 242 nM
  TGI: 5.57 µM
SNB-19 CNS
  GI50: 290 nM
  TGI: 17.7 µM
SNB-75 CNS
  GI50: 158 nM
  TGI: 0.475 µM
SR leukemia
  GI50: 128 nM
SW-620 colon
  GI50: 292 nM
  TGI: 12.4 µM
T-47D breast
  GI50: 0.299 µM
  TGI: 18.6 µM
TK-10 renal
  GI50: 0.357 µM
  TGI: 54.2 µM
U251 CNS
  GI50: 271 nM
  TGI: > 42.4 µM
UACC-257 melanoma
  GI50: 380 nM
  TGI: 11.2 µM
UACC-62 melanoma
  GI50: 200 nM
  TGI: 0.699 µM
UO-31 renal
  GI50: 0.282 µM
  TGI: 11.1 µM

## ClCc1ccc(-c2ccc(Cn3cnc4nc(Cl)nc(Cl)c43)cc2)cc1
786-0 renal
  GI50: 17.1 µM
  TGI: 31.7 µM
A498 renal
  GI50: 17.7 µM
  TGI: 32 µM
A549 NSCLC
  GI50: 3530 nM
  TGI: > 100 µM
ACHN renal
  GI50: 5360 nM
  TGI: 17 µM
BT-549 breast
  GI50: 2720 nM
  TGI: 6.59 µM
CAKI-1 renal
  GI50: 2210 nM
  TGI: 4.99 µM
CCRF-CEM leukemia
  GI50: 2160 nM
  TGI: 4.86 µM
COLO 205 colon
  GI50: 4020 nM
  TGI: 18.2 µM
DU-145 prostate
  GI50: 2710 nM
  TGI: 7.6 µM
EKVX NSCLC
  GI50: 15.9 µM
  TGI: 29.5 µM
HCC-2998 colon
  GI50: 4630 nM
  TGI: 21.7 µM
HCT-116 colon
  GI50: 3850 nM
  TGI: 13.4 µM
HCT-15 colon
  GI50: 3900 nM
  TGI: 13.9 µM
HL-60(TB) leukemia
  GI50: 12.3 µM
  TGI: > 100000 nM
HOP-62 NSCLC
  GI50: 13.5 µM
  TGI: 48.8 µM
HOP-92 NSCLC
  GI50: 3820 nM
  TGI: 8.78 µM
HS 578T breast
  GI50: 5.81 µM
  TGI: 40.7 µM
HT29 colon
  GI50: 3540 nM
  TGI: 12.4 µM
IGROV1 ovarian
  GI50: 14.3 µM
  TGI: 34.8 µM
K-562 leukemia
  GI50: 5.59 µM
  TGI: 44.1 µM
KM12 colon
  GI50: 3690 nM
  TGI: 12.8 µM
LOX IMVI melanoma
  GI50: 1860 nM
  TGI: 3.3 µM
M14 melanoma
  GI50: 18.7 µM
  TGI: 36.8 µM
MALME-3M melanoma
  GI50: 3330 nM
  TGI: 7.88 µM
MCF7 breast
  GI50: 3180 nM
  TGI: 10.8 µM
MDA-MB-231 breast
  GI50: 11.1 µM
  TGI: 23.7 µM
MDA-MB-435
  GI50: 5250 nM
  TGI: 20.7 µM
MOLT-4 leukemia
  GI50: 3360 nM
  TGI: 10.9 µM
NCI-H226 lung
  GI50: 13.8 µM
  TGI: 26.7 µM
NCI-H23 lung
  GI50: 7.32 µM
  TGI: 24.3 µM
NCI-H460 lung
  GI50: 7.85 µM
  TGI: 24.6 µM
NCI-H522 lung
  GI50: 12 µM
  TGI: 36.4 µM
NCI/ADR-RES ovarian
  GI50: 3970 nM
  TGI: 70.4 µM
OVCAR-3 ovarian
  GI50: 2190 nM
  TGI: 4.59 µM
OVCAR-4 ovarian
  GI50: 15 µM
  TGI: 28.3 µM
OVCAR-5 ovarian
  GI50: 19.6 µM
  TGI: 36 µM
OVCAR-8 ovarian
  GI50: 2410 nM
  TGI: 6.52 µM
PC-3 prostate
  GI50: 4710 nM
  TGI: 16.7 µM
RPMI-8226 leukemia
  GI50: 3810 nM
  TGI: 27.9 µM
RXF 393 renal
  GI50: 2500 nM
  TGI: 5000 nM
SF-268 CNS
  GI50: 3600 nM
  TGI: 15.2 µM
SF-295 CNS
  GI50: 14.2 µM
  TGI: 30.7 µM
SF-539 CNS
  GI50: 2300 nM
  TGI: 5060 nM
SK-MEL-2 melanoma
  GI50: 7.9 µM
  TGI: 21.2 µM
SK-MEL-28 melanoma
  GI50: 2380 nM
  TGI: 5.16 µM
SK-MEL-5 melanoma
  GI50: 4550 nM
  TGI: 16.5 µM
SK-OV-3 ovarian
  GI50: 19.7 µM
  TGI: 33.9 µM
SN12C renal
  GI50: 3060 nM
  TGI: 12.3 µM
SNB-19 CNS
  GI50: 4580 nM
  TGI: 15.2 µM
SNB-75 CNS
  GI50: 4500 nM
  TGI: 15.2 µM
SR leukemia
  GI50: 2390 nM
  TGI: 7.46 µM
SW-620 colon
  GI50: 2220 nM
  TGI: 4.75 µM
T-47D breast
  GI50: 7.03 µM
  TGI: 49.3 µM
TK-10 renal
  GI50: 6.88 µM
  TGI: 20.4 µM
U251 CNS
  GI50: 3820 nM
  TGI: 11.3 µM
UACC-257 melanoma
  GI50: 3040 nM
  TGI: 9.88 µM
UACC-62 melanoma
  GI50: 4130 nM
  TGI: 14.4 µM
UO-31 renal
  GI50: 16.7 µM
  TGI: 34.1 µM
